Reference: patent US20210087206A1, “MACROCYCLIC KINASE INHIBITORS AND THEIR USE” (TURNING POINT THERAPEUTICS, INC., priority 2017, published 2021)

Columns and labels:
Experiment in all cases: Cell proliferation assay (CellTiter-Glo)
Assay type in all cases: cell-based
BaF3 EML4-ALK = target: T1, BaF3 EML4-ALK (Homo sapiens, UniProt Q9UM73); conditions: anti-cell proliferation, 72 hours
T1 construct: The EML4-ALK gene (variant 1) was synthesized at GenScript and cloned into pCDH-CMV-MCS-EF1-Puro plasmid (System Biosciences, Inc); fused on or other part: EML4 N-terminal part (variant 1: exons 1-13, with the coiled-coil that oligomerises the fusion) fused to the intracellular part of ALK, which contains the kinase domain; Q9HC35 (Echinoderm microtubule-associated protein-like 4)
Procedure: Cloning and Ba/F3 or NIH3T3 Stable Cell Line Creation
The EML4-ALK gene (variant 1) was synthesized at GenScript and cloned into pCDH-CMV-MCS-EF1-Puro plasmid (System Biosciences, Inc). Ba/F3-EML4-ALK wild type were generated by transducing Ba/F3 cells with lentivirus containing EML4-ALK wide type. Stable cell lines were selected by puromycin treatment, followed by IL-3 withdrawal. Briefly, 5×10^6 Ba/F3 cells were transduced with lentivirus supernatant in the presence of 8 μg/mL protamine sulfate. The transduced cells were subsequently selected with 1 μg/mL puromycin in the presence of IL3-containing medium RPMI1640, plus 10% FBS. After 10-12 days of selection, the surviving cells were further selected for IL3 independent growth.
(§1) Cell Proliferation Assays:
(§2) Two thousand cells per well were seeded in 384 well white plate for 24 hrs, and then treated with compounds for 72 hours (37° C., 5% CO2). Cell proliferation was measured using CellTiter-Glo luciferase-based ATP detection assay (Promega) following the manufactures's protocol. IC50 determinations were performed using GraphPad Prism software (GraphPad, Inc., San Diego, Calif.).

KG-1 cell (OP2-FGFR1) = conditions: Homo sapiens, anti-cell proliferation, 72 hours
Procedure: (§3) Cell Lines and Cell Culture:
(§4) Colorectal cell line KM 12 (harboring endogenous TPM3-TRKA fusion gene) was obtained from NCI. Acute myelogenous cell line KG-1 (harboring endogenous OP2-FGFR1 fusion gene) were purchased from ATCC.
as §1, §2

KM12 (TPM3-TRKA) = conditions: Homo sapiens, anti-cell proliferation, 72 hours
Procedure: as §3, §4, §1, §2

T1 sequence (Q9UM73 whole entry, stated change not applied, the tested form may be a part): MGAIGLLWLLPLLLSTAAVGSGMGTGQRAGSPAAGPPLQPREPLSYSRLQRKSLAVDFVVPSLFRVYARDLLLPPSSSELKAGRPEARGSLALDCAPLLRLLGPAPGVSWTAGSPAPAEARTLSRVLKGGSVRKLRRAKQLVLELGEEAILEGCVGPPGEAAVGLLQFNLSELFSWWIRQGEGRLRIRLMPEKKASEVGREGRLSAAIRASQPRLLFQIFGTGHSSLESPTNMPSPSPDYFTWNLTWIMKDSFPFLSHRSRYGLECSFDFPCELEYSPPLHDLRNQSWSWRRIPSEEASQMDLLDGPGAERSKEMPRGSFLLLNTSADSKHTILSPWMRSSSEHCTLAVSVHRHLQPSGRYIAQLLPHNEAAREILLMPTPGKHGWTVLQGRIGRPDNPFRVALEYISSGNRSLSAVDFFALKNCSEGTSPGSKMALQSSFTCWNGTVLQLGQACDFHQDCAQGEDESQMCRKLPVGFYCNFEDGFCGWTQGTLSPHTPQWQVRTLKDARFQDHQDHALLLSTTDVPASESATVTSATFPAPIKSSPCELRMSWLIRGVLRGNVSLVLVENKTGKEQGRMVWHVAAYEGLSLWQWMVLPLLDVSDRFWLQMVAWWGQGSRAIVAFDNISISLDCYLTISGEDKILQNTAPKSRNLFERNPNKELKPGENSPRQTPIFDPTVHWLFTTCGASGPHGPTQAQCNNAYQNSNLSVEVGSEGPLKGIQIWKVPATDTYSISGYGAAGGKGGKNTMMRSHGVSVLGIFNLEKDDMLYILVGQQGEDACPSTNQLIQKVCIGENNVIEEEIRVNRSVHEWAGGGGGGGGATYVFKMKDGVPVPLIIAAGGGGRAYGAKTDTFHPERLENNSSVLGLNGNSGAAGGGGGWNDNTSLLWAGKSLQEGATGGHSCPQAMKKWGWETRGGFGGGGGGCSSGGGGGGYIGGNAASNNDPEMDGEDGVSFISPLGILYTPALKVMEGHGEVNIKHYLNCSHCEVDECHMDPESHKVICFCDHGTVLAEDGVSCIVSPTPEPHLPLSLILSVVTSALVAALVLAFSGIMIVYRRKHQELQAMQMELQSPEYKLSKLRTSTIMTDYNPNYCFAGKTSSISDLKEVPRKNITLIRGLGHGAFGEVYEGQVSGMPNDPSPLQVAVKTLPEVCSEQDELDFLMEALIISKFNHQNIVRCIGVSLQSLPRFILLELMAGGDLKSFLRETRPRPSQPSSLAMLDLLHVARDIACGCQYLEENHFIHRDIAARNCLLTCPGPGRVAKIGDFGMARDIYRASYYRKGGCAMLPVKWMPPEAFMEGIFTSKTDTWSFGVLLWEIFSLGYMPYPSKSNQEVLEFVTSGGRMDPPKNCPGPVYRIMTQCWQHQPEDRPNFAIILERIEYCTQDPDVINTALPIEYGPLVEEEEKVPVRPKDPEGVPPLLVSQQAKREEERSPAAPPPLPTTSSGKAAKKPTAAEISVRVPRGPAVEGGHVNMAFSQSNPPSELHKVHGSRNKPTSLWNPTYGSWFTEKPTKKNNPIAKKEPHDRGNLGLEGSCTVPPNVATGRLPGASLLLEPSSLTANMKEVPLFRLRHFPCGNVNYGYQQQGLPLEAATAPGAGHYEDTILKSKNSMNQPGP

IC50 (BaF3 EML4-ALK) [nM] | Structure (SMILES) | IC50 (KG-1 cell (OP2-FGFR1)) [nM] | IC50 (KM12 (TPM3-TRKA)) [nM]
89.1 | C[C@@H]1COc2ncc(F)cc2CN2c3nc4c(cnn4cc3OC[C@H]2C2CC2)C(=O)N1 [Compound 25, (4R,13R)-4-cyclopropyl-8-fluoro-13-methyl-3,4,13,14-tetrahydro-6H-18,1-(metheno)[1,4]oxazino[3,4-i]pyrazolo[4,3-f]pyrido[3,2-l][1,4,8,10]oxatriazacyclotridecin-15(12H)-one] | 131 | < 0.2
692 | C[C@H]1CNC(=O)c2cnn3cc4c(nc23)N(Cc2cc(F)cnc2O1)[C@H](C1CC1)CO4 [Compound 26, (4R,12S)-4-cyclopropyl-8-fluoro-12-methyl-3,4,13,14-tetrahydro-6H-18,1-(metheno)[1,4]oxazino-[3,4-i]pyrazolo[4,3-f]pyrido-[3,2-l]-[1,4,8,10]oxatriazacyclo-tridecin-15(12H)-one] | 694 | < 0.2
604 | C[C@H]1CNC(=O)c2cnn3cc4c(nc23)N(Cc2cc(F)cnc2O1)C1(CC1)CO4 [Compound 27, (12′S)-8′-fluoro-12′-methyl-3′H,6′H,12′H,13′H,14′H,15′H-spiro[cyclopropane-1,4′-[2,11]-dioxa[5,10,14,17,18,19]hexaaza-[18,1](metheno)[1,4]oxazino[3,4-i]pyrazolo[4,3-f]pyrido[3,2-l] [1,4,8,10]oxatriazacyclotridecin]-15′-one] | 3570 | < 0.2
180 | C[C@@H]1COc2ncc(F)cc2CN2c3nc4c(cnn4cc3OCC23CC3)C(=O)N1 [Compound 28, (13′R)-8′-fluoro-13′-methyl-3′H,6′H,12′H,14′H,15′H-spiro-[cyclopropane-1,4′-[2,11]dioxa-[5,10,14,17,18,19]hexaaza[18,1]-(metheno)[1,4]oxazino[3,4-i]-pyrazolo[4,3-f]pyrido[3,2-l] [1,4,8,10]oxatriazacyclotridecin]-15′-one] | 786 | < 0.2
826 | C[C@@H]1COc2cn3ncc4c3nc2N(Cc2cc(F)cnc2OC[C@@H](C)NC4=O)C1 [Compound 29, (4S,14R)-9-fluoro-4,14-dimethyl-4,5,14,15-tetrahydro-3H,7H-19,1-(metheno)[1,4]oxazepino[3,4-i]-pyrazolo[4,3-f]pyrido[3,2-l] [1,4,8,10]oxatriazacyclotridecin-16(13H)-one] | 130 | 9.6
7380 | C[C@@H]1COc2cn3ncc4c3nc2N(Cc2cc(F)cnc2O[C@@H](C)CNC4=O)C1 [Compound 30, (4S,13S)-9-fluoro-4,13-dimethyl-4,5,14,15-tetrahydro-3H,7H-19,1-(metheno)[1,4]oxazepino[3,4-i]-pyrazolo[4,3-f]pyrido[3,2-l] [1,4,8,10]oxatriazacyclotridecin-16(13H)-one] | 536 | 42
1330 | C[C@@H]1COc2cn3ncc4c3nc2N(Cc2cc(F)ccc2OC[C@@H](C)NC4=O)C1 [Compound 31, (4S,14R)-9-fluoro-4,14-dimethyl-4,5,14,15-tetrahydro-3H,7H-19,1-(metheno)[1,4]oxazepino[3,4-i]-pyrazolo[4,3-f][1,4,8,10]benzo-xatriazacyclotridecin-16(13H)-one] | 779 | < 0.2
74.6 | C[C@@H]1CCOc2ncc(F)cc2CN2c3nc4c(cnn4cc3OC[C@H]2C)C(=O)N1 [Compound 32, (6R,16R)-12-fluoro-6,16-dimethyl-5,6,7,8,16,17-hexahydro-4H,14H-1,19-(metheno)[1,4]oxazino[4,3-e]pyrazolo[3,4-h]pyrido[2,3-b] [1,5,7,11]oxatriazacyclotetradecin-4-one] | 137 | < 0.2
58.4 | C[C@@H]1COc2cn3ncc4c3nc2N1Cc1cc(F)cnc1OCCCNC4=O [Compound 33, (16R)-12-fluoro-16-methyl-5,6,7,8,16,17-hexahydro-4H,14H-1,19-(metheno)[1,4]oxazino[4,3-e]pyrazolo[3,4-h]pyrido[2,3-b] [1,5,7,11]oxatriazacyclotetradecin-4-one] | 37.1 | < 0.2
23.7 | C[C@@H]1COc2cn3ncc4c3nc2N1Cc1cc(F)cnc1OCC1(CC1)NC4=O [Compound 34, (4′R)-8′-fluoro-4′-methyl-3′H,4′H,6′H,12′H,14′H,15′H-spiro[cyclopropane-1,13′-[2,11]dioxa[5,10,14,17,18,19]hexaaza[18,1](metheno)[1,4]oxazino[3,4-i]pyrazolo[4,3-f]pyrido[3,2-l][1,4,8,10]oxatriazacyclotridecin]-15′-one] | 12.5 | < 0.2

Further lines, the molecule ahead of its results:

Structure (SMILES) | IC50 (BaF3 EML4-ALK) [nM] | IC50 (KG-1 cell (OP2-FGFR1)) [nM] | IC50 (KM12 (TPM3-TRKA)) [nM]
C[C@@H]1COc2ncc(F)cc2CN2c3nc4c(cnn4cc3OC[C@H]2C)C(=O)N1 [Compound 14, (4R,13R)-8-fluoro-4,13-dimethyl-3,4,13,14-tetrahydro-6H-18,1-(metheno)[1,4]oxazino[3,4-i]pyrazolo[4,3-f]pyrido[3,2-l][1,4,8,10]oxatriazacyclotridecin-15(12H)-one] | 13.9 | 33.6 | < 0.2
CC[C@@H]1COc2cn3ncc4c3nc2N1Cc1cc(F)cnc1OC[C@@H](C)NC4=O [Compound 15, (4R,13R)-4-ethyl-8-fluoro-13-methyl-3,4,13,14-tetrahydro-6H-18,1-(metheno)[1,4]oxazino[3,4-i]pyrazolo[4,3-f]pyrido[3,2-l] [1,4,8,10]oxatriazacyclotridecin-15(12H)-one] | 14 | 25.2 | < 0.2
C[C@@H]1COc2c(F)cc(F)cc2CN2c3nc4c(cnn4cc3OC[C@H]2C)C(=O)N1 [Compound 16, (4R,13R)-8,10-difluoro-4,13-dimethyl-3,4,13,14-tetrahydro-6H-18,1-(metheno)[1,4]oxazino-[3,4-i]pyrazolo[4,3-f][1,4,8,10]-benzoxatriazacyclotridecin-15(12H)-one] | 90.2 | 827 | < 0.2
C[C@H]1CNC(=O)c2cnn3cc4c(nc23)N(CCCO4)Cc2cc(F)ccc2O1 [Compound 17, (13S)-9-fluoro-13-methyl-4,5,14,15-tetrahydro-3H,7H-19,1-(metheno)[1,4]oxazepino-[3,4-i]pyrazolo[4,3-f][1,4,8,10]-benzoxatriazacyclotridecin-16(13H)-one] | 2640 | 5000 | < 0.2
C[C@H]1CNC(=O)c2cnn3cc4c(nc23)N(Cc2cc(F)ccc2O1)[C@@H](C)CCO4 [Compound 18, (5S,13S)-9-fluoro-5,13-dimethyl-4,5,14,15-tetrahydro-3H,7H-19,1-(metheno)[1,4]oxazepino[3,4-i]-pyrazolo[4,3-f][1,4,8,10]benzo-xatriaxacyclotridecin-16(13H)-one] | > 10000 | > 10000 | < 0.2
C[C@@H]1CCOc2cn3ncc4c3nc2N1Cc1cc(F)ccc1O[C@@H](C)CNC4=O [Compound 19, (5R,13S)-9-fluoro-5,13-dimethyl-4,5,14,15-tetrahydro-3H,7H-19,1-(metheno)[1,4]oxazepino[3,4-i]-pyrazolo[4,3-f][1,4,8,10]benzo-xatriazacyclotridecin-16(13H)-one] | 6220 | 9950 | < 0.2
C[C@@H]1COc2cn3ncc4c3nc2N(Cc2cc(F)ccc2O[C@@H](C)CNC4=O)C1 [Compound 20, (4S,13S)-9-fluoro-4,13-dimethyl-4,5,14,15-tetrahydro-3H,7H-19,1-(metheno)[1,4]oxazepino[3,4-i]-pyrazolo[4,3-f][1,4,8,10]benzo-xatriazacyclotridecin-16(13H)-one] | 4910 | 2420 | 5.1
C[C@@H]1CCOc2cn3ncc4c3nc2N1Cc1cc(F)cnc1O[C@@H](C)CNC4=O [Compound 21, (5R,13S)-9-fluoro-5,13-dimethyl-4,5,14,15-tetrahydro-3H,7H-19,1-(metheno)[1,4]oxazepino[3,4-i]pyrazolo[4,3-f]pyrido[3,2-l][1,4,8,10]oxatriazacyclotridecin-16(13H)-one] | 3000 | 1820 | 0.6
C[C@@H]1COc2ncc(F)cc2CN2c3nc4c(cnn4cc3OCC[C@H]2C)C(=O)N1 [Compound 22, (5R,14R)-9-fluoro-5,14-dimethyl-4,5,14,15-tetrahydro-3H,7H-19,1-(metheno)[1,4]oxazepino[3,4-i]-pyrazolo[4,3-f]pyrido[3,2-l] [1,4,8,10]oxatriazacyclotridecin-16(13H)-one] | 731 | 784 | < 0.2
C[C@@H]1CCOc2cn3ncc4c3nc2N1Cc1c(ccc(F)c1Cl)O[C@@H](C)CNC4=O [Compound 23, (5R,13S)-8-chloro-9-fluoro-5,13-dimethyl-4,5,14,15-tetrahydro-3H,7H-19,1-(metheno)[1,4]-oxazepino[3,4-i]pyrazolo[4,3-f] [1,4,8,10]benzoxatriazacyclo-tridecin-16(13H)-one] | 1930 | 9510 | < 0.2
